Data reported in patent publication US7767817B2, “Water soluble boronic acid fluorescent reporter compounds and methods of use thereof” (priority 2003, dated 2010).
Like-named read-outs stand apart in the source and are kept apart here.

What was measured:
[1] = Fluorescence quantum yield; type: physicochemical
Method: The effect of various carbohydrates on the fluorescent properties of compound 1 was determined in phosphate buffer at pH 7.4. The emission spectral change of 1 with fructose at different concentrations in 0.1 M aqueous phosphate buffer (pH 7.4) is shown in FIG. 4. A 41-fold emission intensity increase is observed in presence of 50 mM fructose. To the best of our knowledge, such a large emission intensity increase has never been reported for boronic acid-based saccharide sensors involving the ICT mechanism. The quantum yields of 1 in the absence (φF=0.010) and in the presence of 50 mM fructose (φF=0.42) in 0.1 M phosphate buffer (pH 7.4) were obtained using 8-quinoline boronic acid (φF=0.58 in 12 M H2SO4) as a reference compound.
For example, addition of fructose (50 mM) to the solution of 7 induced a 36-fold fluorescence intensity increase at 433 nm and a 0.55-fold fluorescence intensity decrease at 513 nm (FIG. 14). […] To the best of our knowledge, such large emission intensity changes at two wavelengths have never been reported for boronic acid-based saccharide sensors. The quantum yields (φF) of 7 were determined as 0.07 at 513 nm in 0.1 M phosphate buffer (pH 7.4) in the absence of a sugar and 0.23 at 433 nm in the presence of 50 mM of fructose, using 8-quinoline boronic acid (φF=0.58 in 12 M H2SO4) as a reference compound.

[2] = Fluorescence binding study with glucose
Method: (§1) For a typical sugar-BTBA fluorescent measurement, a 1.0×10^−5 M stock solution of BTBA in 0.10 M phosphate buffer at pH 7.4 was made as solution A. […] Solution B was titrated into solution A in order to make mixtures with a constant concentration of BTBA and a range of concentrations of the sugar. Each mixture was allowed to stand for at least 10 min, then 3.0 mL of the mixture was transferred into a cuvette for fluorescence measurement.
(§2) The association constants (Ka) were determined according to the method III in Valeur's publication (J. Phys. Chem. 1988, 92, 6233).

[3] = Fluorescence binding study with galactose
Method: as §1, §2

[4] = Fluorescence binding study with sorbitol
Method: as §1, §2

[5] = Stability noted at isolation; type: physicochemical; conditions: after TFA deprotection, no further purification
Method: (7). To a solution of 6 (0.2501 g, 0.79 mmol) in DCM (20 mL) was added TFA (5 mL). The solution was stirred for 1 h, and then concentrated in vacuum to give a yellow oil.

[6] = Fluorescence binding study with fructose
Method: as §1, §2

[7] = Fluorescence binding study with tagatose
Method: as §1, §2

[8] = Fluorescence intensity pH profile (apparent pKa); type: physicochemical
Description: Since the fluorescence intensity increase upon binding with a sugar seems to be a general phenomenon, the fluorescence change mechanism of compound 5 at pH 7.4 was investigated. For this purpose, the fluorescence pH profiles of both compound 5 alone and compound 5 in the presence of fructose (0.5 M) were studied. The fluorescence intensity of 5 at 334 nm in the absence of sugars decreased upon changing the pH from 3 to 12 (FIG. 3). An apparent pKa of 7.0 was observed, which is assigned to the boronic acid moiety. […] It is well-known that the binding of a diol to boronic acid often lowers the pKa of the boron species) (Springsteen, G.; Wang, B. Tetrahedron 2002, 58, 5291-5300). Therefore, the pKa, which drops from 7.0 to 4.0, can also be reasonably assigned to boron. […] It seems that the fluorescence intensity change of compound 5 is also due to diol's perturbation as that of 8-quinolineboronic acid.
To examine the relationship between the fluorescence intensity changes and the boron ionization states, the pH profile of the fluorescence intensity in the absence and presence of fructose and glucose at a fixed concentration (50 mM) was also studied (FIG. 6). […] It is worth mentioning that the pKa of the protonated dimethyl amino group of 1 is […] the emission wavelength of 1 with the protonated dimethyl amino group at low pH is about 238 nm. Therefore, the fluorescence intensity of 1 at 445 nm was not affected by the protonated dimethyl amino group. The fluorescence intensity changes correspond to the boronic acid pKa (9.4) and therefore hybridization changes, which was responsible for the fluorescence intensity changes observed.
Since the fluorescence intensity increase upon binding with a sugar seems to be a general phenomenon, next the conditions under which optimal fluorescence intensity changes are observed upon addition of a sugar was investigated. For this purpose, the fluorescence pH profiles of both compound 6 alone and in the presence of fructose (0.5 M) were studied. The fluorescence intensity of 6 in the absence of sugars increased by 17-fold upon changing the pH from 3 to 12 (FIG. 10). […] Furthermore, one would expect the pKa values of the other two ionizable groups, the carboxylic acid and the quinolinium groups, to be less than 7. Therefore, assigning the pKa at 7.9 to the boronic acid moiety is the most reasonable option. […] It is well-known that the binding of a diol to boronic acid often lowers the pKa of the boron species. […] Upon addition of fructose, the pKa of the boron drops to about 5.2, which ensures that most of the boron species are in the anionic tetrahedral state at physiological pH.
Since the fluorescence intensity increase upon binding with a sugar seems to be a general phenomenon, the use of 5-QBA functions as a fluorescent probe for diols was investigated. The fluorescence pH profiles of both 5-QBA alone and 5-QBA in the presence of D-fructose (0.5 M) were investigated. […] In order to assign each pKa, the ^11B NMR spectra of 5-QBA and its ester in a mixed deuterated methanol-water (1:1) solvent at different pH were obtained. Methanol was used so that the concentration of 5-QBA can be increased to 57 mM so as to allow for a meaningful NMR determination within a reasonable period of time.
To understand the structural features associated with the fluorescence intensity changes, we studied the pH profiles of the fluorescence intensity in the absence (FIG. 18) and presence of fructose and glucose at a fixed concentration (50 mM). […] The fluorescence intensity at 513 nm increased very quickly when pH increased from 1.78 to 7.04 (thin lines in FIG. 18), and then decreased in the pH range of 7.04-10.54 (thick lines in FIG. 18).

[9] = 0.1 M phosphate buffer pH 7.4, 1:1 complex assumed
[10] = glucose 1.0 M, pH 7.4, λex 300 nm
[11] = galactose 0.50 M, pH 7.4, λex 300 nm
[12] = fructose 0.05 M, pH 7.4, λex 300 nm
[13] = tagatose 0.05 M, pH 7.4, λex 300 nm

CN(C)c1cccc2c(B(O)O)cccc12 [Compound 7, 5-(Dimethylamino)-naphthalene-1-boronic acid]
quantum yield φF at 513 nm ([1]; absence of a sugar, 0.1 M phosphate buffer pH 7.4): 0.07 | quantum yield φF at 433 nm ([1]; presence of 50 mM fructose): 0.23 | Association constant (Ka) with glucose [2, 9]: 3.6 ± 0.1 M⁻¹ | fluorescence intensity change ΔI/I0 at 433 nm [2, 10]: 23 (1.0) | fluorescence intensity change ΔI/I0 at 513 nm [2, 10]: −0.54 (1.0) | maximum fluorescence intensity increase at 433 nm ([2]; glucose 1 M, physiological pH): 23 fold | Association constant (Ka) with galactose [3, 9]: 23.0 ± 0.2 M⁻¹ | fluorescence intensity change ΔI/I0 at 433 nm [3, 11]: 36 (0.50) | fluorescence intensity change ΔI/I0 at 513 nm [3, 11]: −0.56 (0.50) | fluorescence intensity increase at 433 nm ([3]; galactose, physiological pH): about 36 fold | Association constant (Ka) with sorbitol [4, 9]: 337 ± 5 M⁻¹ | fluorescence intensity change ΔI/I0 at 513 nm ([4]; sorbitol 0.05 M, pH 7.4, λex 300 nm): −0.48 (0.05) | fluorescence intensity change ΔI/I0 at 433 nm ([4]; sorbitol 0.20 M, pH 7.4, λex 300 nm): 42 (0.20) | fluorescence intensity increase at 433 nm ([4]; sorbitol 200 mM, physiological pH): 42 fold | stability [5]: not stable in neutral | melting point: 95 to 96 °C | change of the ratio I433/I513 ([6]; 50 mM fructose versus no sugar): 84 fold | Association constant (Ka) with fructose [6, 9]: 311 ± 4 M⁻¹ | emission intensity ratio at 433 and 513 nm (I433/I513) ([6]; before addition of a sugar, pH 7.4): 0.11 | fluorescence intensity change ΔI/I0 at 433 nm [6, 12]: 36 (0.05) | fluorescence intensity change ΔI/I0 at 513 nm [6, 12]: −0.61 (0.05) | fluorescence intensity decrease at 513 nm ([6]; fructose 50 mM, phosphate buffer pH 7.4): 0.55 fold | emission intensity ratio at 433 and 513 nm (I433/I513) ([6]; upon addition of 0.1 mM fructose): 0.23 | Association constant (Ka) with tagatose [7, 9]: 229 ± 3 M⁻¹ | fluorescence intensity change ΔI/I0 at 433 nm [7, 13]: 37 (0.05) | fluorescence intensity change ΔI/I0 at 513 nm [7, 13]: −0.55 (0.05) | fluorescence intensity increase at 433 nm ([7]; tagatose, physiological pH): about 36 fold | pKa ([8]; 0.1 M aqueous phosphate buffer with 50 mM glucose, presence of glucose, intensity at 335 nm, read-out: first apparent pKa (aniline group)): 5.1 | pKa ([8]; 0.1 M aqueous phosphate buffer, compound alone, intensity at 335 nm, read-out: first apparent pKa (aniline group)): 5.1 | pKa ([8]; 0.1 M phosphate buffer, absence of sugar, 0.1 M phosphate buffer, read-out: apparent pKa assigned to the boronic acid moiety): ~9
